Columns and labels:
Donor 1 COP T-Cell Lines = assay: ATP proliferation assay (CellTiter Glo), Donor 1 COP T-cell lines, incl. reactivity to non-canonical GA peptides; type: cell-based, human; settings: for ATP Proliferation Assay, Mean: Day 56, second assay; for luminescent ATP proliferation assay, mean: no antigen 5673 (Table 9); for Proliferation (luminescent ATP assay), Mean: Day 56 of culturing
Method: Proliferation was evaluated by measuring ATP content using a luminescent method (CellTiter Glo Luminescent Cell Viability Assay, Promega, Madison, Wis., cat. #G7571) or by measuring BrdU uptake by ELISA (Millipore cat. #2752), in both cases following kit instructions. A split well format was used. Cells in each well were resuspended and 65 μl transferred to the wells of each of two new U-bottom 96-well plates, to generate the replicate plates. For the initial screening, the original 96-well plate received mitomycin-treated autologous PBMC as APC plus 10 μg/mL antigen (GA). A first replicate plate received 100 μl., mitomycin-treated PBMC alone (2×10^5), and no antigen, and a second replicate plate received 100 μL mitomycin-treated PBMC plus GA at a final concentration of 10 μg/mL. Therefore, all three plates received autologous APC (PBMC) treated with mitomycin C to prevent cell division. […] The latter two plates were incubated for 3 days at 37° C., 6% CO2 before adding CellTiter Glo or BrdU and measuring signal. IL-2 was added at 10 U/mL to the original 96-well plate for expansion on Day 17. For subsequent screenings, mitomycin-treated EBV-transformed autologous B-LCL (2×10^5 to 5×10^5 cells/mL) were used as APC.
COP-responsive T-cell lines were obtained from Donor 1. In the initial stimulation, isolated PBMC were plated at 1×10^5 cells per well (5×10^5 cells/mL) with 10 μg/mL Copaxone and cultured as described above. IL-2 was added to all wells on Days 4 and 7 of culture, and the wells screened for reactivity on Day 14 using a luminescent proliferation assay in split well format. The original plate was restimulated, and IL-2 added 4 days after restimulation.
(§1) T-cell line 222-2D8, generated from Donor 1 by initial stimulation with COP, was shown in at least two experiments to proliferate comparably following restimulation with GMA and COP. […] ATP levels were measured at 48 hours after stimulation. The control in the GMA series was no antigen, and the control in the COP series was MBP. The response to GMA in comparison to COP at the 10 μg/mL dose in this assay was 103.4%.
In a second ATP proliferation assay, carried out on Day 56 or culturing following stimulation with 1, 3, or 10 μg/mL of GMA or COP, the response to GMA in comparison to COP at the 10 μg/mL dose was 107.1%.
as §1, with “line 222-2F1,” for “line 222-2D8,”, “Donor 222” for “Donor 1”, “was 85.1%.” for “was 103.4%.”
On Day 56 of culturing, after six total rounds of stimulation, cell line 222-2F12 was assayed for proliferation in response to stimulation with GA and a series of non-canonical peptides. For the assay, 0, 3, 10, or 30 μg/mL of each of peptides GL 14, GLT 631, GAT 111, and GAT 631, COP, and GMA, were added to the T-cell lines at 1×10^5 cells/mL, in the presence of mitomycin C-treated autologous B-LCL. Proliferation was measured by luminescent ATP assay. Cell line 222-2F12 responded to GL 14 at 3 μg/mL, and not to the other non-canonical GA peptides tested. The response to GMA in comparison to COP at the 10 μg/mL dose in this assay was 99.4%.
The cultures were restimulated on days 46, 56, 67 and 75. On Day 56, cell lines 222-2D8, 222-1H12, 222-2F12, 222-2B8, 222-105, 222-2B11, and 222-2E1 again were tested for reactivity to stimulation with 1, 3, or 10 μg/mL of GMA or COP in a proliferation assay. ATP levels were measured in all seven cell lines at 48 hours (results in FIGS. 5A-G) after stimulation. The control in the GMA series was no antigen, and the control in the COP series was MBP. […]

Donor 3 COP T-Cell Lines = assay: ATP proliferation assay (CellTiter Glo), Donor 3 COP T-cell lines, incl. reactivity to non-canonical GA peptides; type: cell-based, human; settings: for ATP proliferation assay: Day 14; for Reactivity (proliferation), Mean: Day 54 of culture

With glatiramer acetate [COP] the ATP proliferation assay (Donor 1 COP T-Cell Lines; 222-1C5, 10 μg/mL, Day 14, control 7087) was 14906 RLU, the ATP proliferation assay (Donor 1 COP T-Cell Lines; 222-1F8, 10 μg/mL, Day 14, control 2308) was 6519 RLU and the ATP proliferation assay (Donor 1 COP T-Cell Lines; 222-1G8, 10 μg/mL, Day 14, control 4030) was 8308 RLU. It also gave an ATP proliferation assay (Donor 1 COP T-Cell Lines; 222-1H12, 10 μg/mL, Day 14, control 8141) of 23836 RLU, an ATP proliferation assay (Donor 1 COP T-Cell Lines; 222-2B8, 10 μg/mL, Day 14, control 5543) of 13600 RLU and an ATP proliferation assay (Donor 1 COP T-Cell Lines; 222-2B11, 10 μg/mL, Day 14, control 6340) of 16460 RLU. It also gave an ATP proliferation assay (Donor 1 COP T-Cell Lines; 222-2C1, 10 μg/mL, Day 14, control 8350) of 20166 RLU, an ATP proliferation assay (Donor 1 COP T-Cell Lines; 222-2C3, 10 μg/mL, Day 14, control 6839) of 14045 RLU and an ATP proliferation assay (Donor 1 COP T-Cell Lines; 222-2C5, 10 μg/mL, Day 14, control 4695) of 9577 RLU. For the same substance, the ATP proliferation assay (Donor 1 COP T-Cell Lines; 222-2D2, 10 μg/mL, Day 14, control 7135) was 16271 RLU, the ATP proliferation assay (Donor 1 COP T-Cell Lines; 222-2D8, 10 μg/mL, Day 14, control 13024) was 26495 RLU and the “ATP Proliferation Assay, Mean” value (Donor 1 COP T-Cell Lines; 222-2D8, 1 μg/mL (Table 7)) was 7229. For the same substance, the “ATP Proliferation Assay, Mean” value (Donor 1 COP T-Cell Lines; 222-2D8, 3 μg/mL (Table 7)) was 134127, the “ATP Proliferation Assay, Mean” value (Donor 1 COP T-Cell Lines; 222-2D8, 10 μg/mL (Table 7)) was 146092 and the ATP proliferation assay (Donor 1 COP T-Cell Lines; 222-2D8, Day 56, 48 hours after stimulation, 1 μg/mL (Table 6)) was 4888. It also gave an ATP proliferation assay (Donor 1 COP T-Cell Lines; 222-2D8, Day 56, 48 hours after stimulation, 3 μg/mL (Table 6)) of 6392, an ATP proliferation assay (Donor 1 COP T-Cell Lines; 222-2D8, Day 56, 48 hours after stimulation, 10 μg/mL (Table 6)) of 12161 and an ATP proliferation assay (Donor 1 COP T-Cell Lines; 222-2E1, 10 μg/mL, Day 14, control 8035) of 17064 RLU. For the same substance, the ATP proliferation assay (Donor 1 COP T-Cell Lines; 222-2F12, 10 μg/mL, Day 14, control 9703) was 28022 RLU, the “luminescent ATP proliferation assay, mean” value (Donor 1 COP T-Cell Lines; 222-2F12, Day 56, 3 μg/mL) was 233087 and the “luminescent ATP proliferation assay, mean” value (Donor 1 COP T-Cell Lines; 222-2F12, Day 56, 10 μg/mL) was 230009. For the same substance, the “luminescent ATP proliferation assay, mean” value (Donor 1 COP T-Cell Lines; 222-2F12, Day 56, 30 μg/mL) was 118769, the ATP proliferation assay (Donor 1 COP T-Cell Lines; 222-2F12, Day 56, 48 hours after stimulation, 1 μg/mL (Table 8)) was 5281 and the ATP proliferation assay (Donor 1 COP T-Cell Lines; 222-2F12, Day 56, 48 hours after stimulation, 3 μg/mL (Table 8)) was 8684. For the same substance, the ATP proliferation assay (Donor 1 COP T-Cell Lines; 222-2F12, Day 56, 48 hours after stimulation, 10 μg/mL (Table 8)) was 11747, the ATP proliferation assay (Donor 1 COP T-Cell Lines; 222-2G4, 10 μg/mL, Day 14, control 2566) was 6812 RLU and the ATP proliferation assay (Donor 1 COP T-Cell Lines; 222-2G12, 10 μg/mL, Day 14, control 3913) was 9899 RLU. The “Proliferation (luminescent ATP assay), Mean” value (Donor 1 COP T-Cell Lines; T-cell line 222-1H12, 3 μg/mL antigen, 0 μg/mL 5974) was 146874 RLU, the “Proliferation (luminescent ATP assay), Mean” value (Donor 1 COP T-Cell Lines; T-cell line 222-1H12, 10 μg/mL antigen, 0 μg/mL 5974) was 168163 RLU and the “Proliferation (luminescent ATP assay), Mean” value (Donor 1 COP T-Cell Lines; T-cell line 222-1H12, 30 μg/mL antigen, 0 μg/mL 5974) was 68492 RLU. For the same substance, the “Proliferation (luminescent ATP assay), Mean” value (Donor 1 COP T-Cell Lines; T-cell line 222-2F12, 3 μg/mL antigen, 0 μg/mL 5673) was 233087, the “Proliferation (luminescent ATP assay), Mean” value (Donor 1 COP T-Cell Lines; T-cell line 222-2F12, 10 μg/mL antigen, 0 μg/mL 5673) was 230009 and the “Proliferation (luminescent ATP assay), Mean” value (Donor 1 COP T-Cell Lines; T-cell line 222-2F12, 30 μg/mL antigen, 0 μg/mL 5673) was 118769. The “ATP proliferation signal relative to control” value (Donor 1 COP T-Cell Lines; fifteen Donor 1 COP T-cell lines of Table 5, 10 μg/mL) was “at least twice the signal as control”, the “ratio of proliferation after stimulation with COP to proliferation in response to the APC control” value (Donor 3 COP T-Cell Lines) was “greater than 3.0” and the ATP proliferation assay (Donor 3 COP T-Cell Lines; 165-B6C, 10 μg/mL, control 14966) was 77564 RLU. The ATP proliferation assay (Donor 3 COP T-Cell Lines; 165-B10C, 10 μg/mL, control 10604) was 54779 RLU, the ATP proliferation assay (Donor 3 COP T-Cell Lines; 165-C4C, 10 μg/mL, control 23510) was 108089 RLU and the ATP proliferation assay (Donor 3 COP T-Cell Lines; 165-C7C, 10 μg/mL, control 12707) was 63491 RLU. The ATP proliferation assay (Donor 3 COP T-Cell Lines; 165-C9C, 10 μg/mL, control 22840) was 113199 RLU, the “response in ATP proliferation assay” value (Donor 3 COP T-Cell Lines; 165-D2C, 165-C7C, 165-C4C, Day 39, three concentrations (Table 24)) was “responded comparably” and the ATP proliferation assay (Donor 3 COP T-Cell Lines; 165-D2C, 10 μg/mL, control 12767) was 54895 RLU. The ATP proliferation assay (Donor 3 COP T-Cell Lines; 165-D3C, 10 μg/mL, control 18380) was 119241 RLU, the ATP proliferation assay (Donor 3 COP T-Cell Lines; 165-D11C, 10 μg/mL, control 13302) was 82759 RLU and the ATP proliferation assay (Donor 3 COP T-Cell Lines; 165-E3C, 10 μg/mL, control 12219) was 69893 RLU. It also gave an ATP proliferation assay (Donor 3 COP T-Cell Lines; 165-E9C, 10 μg/mL, control 22512) of 98168 RLU, an ATP proliferation assay (Donor 3 COP T-Cell Lines; 165-F3C, 10 μg/mL, control 13157) of 93437 RLU and an ATP proliferation assay (Donor 3 COP T-Cell Lines; 165-F4C, 10 μg/mL, control 13598) of 96289 RLU. For the same substance, the ATP proliferation assay (Donor 3 COP T-Cell Lines; 165-F6C, 10 μg/mL, control 23457) was 135516 RLU, the ATP proliferation assay (Donor 3 COP T-Cell Lines; 165-F9C, 10 μg/mL, control 19736) was 145768 RLU and the “Reactivity (proliferation), Mean” value (Donor 3 COP T-Cell Lines; T-cell line 165-B6C, 1 μg/mL antigen, No Antigen 2358) was 3878 RLU. For the same substance, the “Reactivity (proliferation), Mean” value (Donor 3 COP T-Cell Lines; T-cell line 165-B6C, 3 μg/mL antigen, No Antigen 2358) was 21455 RLU, the “Mean, ATP proliferation assay” value (Donor 3 COP T-Cell Lines; T-cell line 165-B6C, 3 μg/mL, Day 46, after 3 days) was 29815 RLU and the “Reactivity (proliferation), Mean” value (Donor 3 COP T-Cell Lines; T-cell line 165-B6C, 10 μg/mL antigen, No Antigen 2358) was 32197 RLU. For the same substance, the “Mean, ATP proliferation assay” value (Donor 3 COP T-Cell Lines; T-cell line 165-B6C, 10 μg/mL, Day 46, after 3 days) was 34502 RLU, the “Reactivity (proliferation), Mean” value (Donor 3 COP T-Cell Lines; T-cell line 165-B6C, 100 μg/mL antigen, No Antigen 2358) was 7969 RLU and the “Mean, ATP proliferation assay” value (Donor 3 COP T-Cell Lines; T-cell line 165-B6C, Day 32, 10 μg/mL) was 952 RLU. For the same substance, the “Reactivity (proliferation), Mean” value (Donor 3 COP T-Cell Lines; T-cell line 165-B10C, 1 μg/mL antigen, No Antigen 2234) was 2117 RLU and the “Reactivity (proliferation), Mean” value (Donor 3 COP T-Cell Lines; T-cell line 165-B10C, 3 μg/mL antigen, No Antigen 2234) was 2519 RLU.

Source: US9995734B2, “Human T cell line assay for evaluating the immunologic identity of glatiramer acetate preparations” (Mylan Inc., priority 2013, dated 2018)
